The text below walks through data of patent publication US20210147381A1, “1,2,3,4-SUBSTITUTED QUINOLINE COMPOUNDS AS SIP MODULATORS” (AbbVie Deutschland GmbH & Co. KG, priority 2017, published 2021).

In general, EC50 refers to the concentration that produces a half-maximal response. By Emax is commonly meant the maximal effect, on the per cent scale that the assay sets.

Each structure is given as a SMILES string. Some results are limits rather than exact numbers.

What all share (format): cell-based
Test [1] addresses T1, human S1P1 receptor (S1PR1) (Homo sapiens, UniProt P21453).
T1 construct: host or cells: CHO-K1
In words: Intracellular Ca2+ release (method 1), agonist potency, S1P1. Particulars: CHO-K1 cells expressing human S1PR1; cells given as bound. How it is done: (§1) Agonistic activity and efficacy of compounds was assessed in recombinant cells using method 1 described below.
(§2) Agonist potency and efficacy were assessed by measurement of intracellular Ca^2+ release. Recombinant CHO-K1 cells (Euroscreen, Brussels, Belgium) expressing human S1PR5, S1PR1, S1PR3 or S1PR4 receptors, aequorin, and GTP binding protein Gq/i5 were cultured using a medium containing nutrient mixture F-12 Ham (Sigma-Aldrich) with 10% FBS, and 100 μg/mL gentamicin and equilibrated at 5% CO2.
(§3) 15,000 cells in 20 μL medium were seeded into Biocoat poly-D-Lysine coated 384 well plates (Becton Dickinson #35-6663) and grown to 95% confluency after 24 h.
(§4) Culture medium was replaced by an assay buffer consisting of HBBS with Ca^2+ and Mg^2+ (Invitrogen #14025-050), 20 mmol/L Hepes (Sigma-Aldrich #H-3375), 2.5 mmol/L probenecid (Sigma-Aldrich #P-8761, and 0.1% BSA (Sigma-Aldrich #A-7030) pH 7.4. The Calcium 5 no-wash FLIPR assay kit (Molecular Devices #5000625) was performed as described in the kit instructions. Cells were incubated with Calcium 5 dye for 1 h at 37° C., 5% CO2 in the dark. After 45 min adaptation to RT assessment of agonist stimulation of intracellular Ca^2+ release was performed by addition of test compounds at various concentrations obtained by serial dilution. Phospho-fingolimod was used as positive control and reference agonist (intrinsic activity 100%).
(§5) Agonism of test compounds at the human S1Px receptors were characterized by the EC50 values (potencies) deduced from a nonlinear 4 parametric logistic curve fit to the measured fluorescence data after normalization to the lower and upper plateaus of the fitted reference agonist's (phospho-fingolimod)effect curve and by their efficacy (Emax) values represented by their maximum achievable effects in % of the reference agonist's efficacy, which is defined as an Emax of 100%.

In test [2] the target is T2, human S1P4 receptor (S1PR4) (Homo sapiens, UniProt O95977).
T2 construct: host or cells: CHO-K1
T2 sequence (O95977 1-384): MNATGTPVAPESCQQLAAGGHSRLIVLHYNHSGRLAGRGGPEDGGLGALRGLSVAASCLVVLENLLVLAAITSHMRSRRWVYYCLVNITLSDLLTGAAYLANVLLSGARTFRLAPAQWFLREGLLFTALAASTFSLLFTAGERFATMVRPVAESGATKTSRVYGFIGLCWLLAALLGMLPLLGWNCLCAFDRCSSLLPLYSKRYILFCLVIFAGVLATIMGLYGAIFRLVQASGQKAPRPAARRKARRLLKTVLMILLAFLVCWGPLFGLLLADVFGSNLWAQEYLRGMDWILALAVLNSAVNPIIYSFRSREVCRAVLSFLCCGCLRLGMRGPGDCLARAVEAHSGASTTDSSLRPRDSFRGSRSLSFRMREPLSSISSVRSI
In words: Intracellular Ca2+ release (method 1), agonist potency, S1P4. The following applies: CHO-K1 cells expressing human S1PR4. How it is done: as §1, §2, §3, §4, §5

The target in test [3] is T3, human S1P5 receptor (S1PR5) (Homo sapiens, UniProt Q9H228).
T3 construct: host or cells: CHO-K1
Nature of the test: Intracellular Ca2+ release (method 1), agonist potency and efficacy, S1P5. The following applies: for Emax: read-out: hS1P5 EMax; for EC50: recombinant CHO-K1 cells expressing human S1PR5, aequorin, Gq/i5, Ca2+ release, read-out: S1P5 EC50 range. How it is done: as §1, §2, §3, §4, §5

[4] abbreviates: maximum effect in % of reference agonist phospho-fingolimod (100%).

T3 sequence (Q9H228 whole entry): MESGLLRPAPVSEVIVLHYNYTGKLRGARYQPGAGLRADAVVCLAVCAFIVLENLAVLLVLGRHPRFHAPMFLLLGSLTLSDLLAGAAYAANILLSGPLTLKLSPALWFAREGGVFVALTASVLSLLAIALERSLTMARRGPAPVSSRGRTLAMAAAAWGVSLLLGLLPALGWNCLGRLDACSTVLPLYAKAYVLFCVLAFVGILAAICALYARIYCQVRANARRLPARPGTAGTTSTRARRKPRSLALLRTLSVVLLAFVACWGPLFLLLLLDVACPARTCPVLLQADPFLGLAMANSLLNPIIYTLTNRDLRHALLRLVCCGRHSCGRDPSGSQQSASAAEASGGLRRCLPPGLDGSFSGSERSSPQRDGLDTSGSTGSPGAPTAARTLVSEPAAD
T1 sequence (P21453 whole entry): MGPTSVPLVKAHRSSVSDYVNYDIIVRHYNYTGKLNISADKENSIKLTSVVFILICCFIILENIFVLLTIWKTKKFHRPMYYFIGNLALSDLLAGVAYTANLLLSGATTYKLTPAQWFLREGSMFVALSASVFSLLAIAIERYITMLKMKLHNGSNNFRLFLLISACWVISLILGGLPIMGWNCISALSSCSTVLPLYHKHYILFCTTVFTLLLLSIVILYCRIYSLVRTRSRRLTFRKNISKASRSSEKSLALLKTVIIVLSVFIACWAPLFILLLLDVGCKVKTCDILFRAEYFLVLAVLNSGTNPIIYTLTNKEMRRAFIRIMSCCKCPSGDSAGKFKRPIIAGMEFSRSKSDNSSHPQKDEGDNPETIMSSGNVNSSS

`O=C(O)CCCN1Cc2ccc(OCc3ccc(Cl)cc3)cc2C2(CC2)C1` [Compound 16, 4-(6′-((4-Chlorobenzyl)oxy)-1′H-spiro[cyclopropane-1,4′-isoquinolin]-2′(3′H)-yl)butanoic acid]: the results for the EC50 in test [1], in test [2] and in test [3] were greater than 1 µM, 0.1 to 1 µM and 0.1 to 1 µM, respectively. In addition, in test [3] (setting [4]), the Emax was less than 50%.

For the molecule `CC(CC(=O)O)CN1Cc2ccc(C#Cc3ccc(OC4CCCC4)cc3)cc2C2(CC2)C1` (stereo not shown) [Compound 64, 4-(6′-((4-(cyclopentyloxy)phenyl)ethynyl)-1′H-spiro[cyclopropane-1,4′-isoquinolin]-2′(3′H)-yl)-3-methylbutanoic acid], the values for the EC50 in test [1], in test [2] (cells given as bound) and in test [3] were greater than 1 µM, greater than 1 µM and 0.01 to 0.1 µM, respectively. Moreover, the Emax in test [3] (setting [4]) was greater than 100%.

On to `O=C(O)CCCN1Cc2ccc(C#Cc3ccc(=O)n(CC4CC4)c3)cc2C2(CC2)C1` [Compound 4, 4-(6′-((1-(cyclopropylmethyl)-6-oxo-1,6-dihydropyridin-3-yl)ethynyl)-1′H-spiro[cyclopropane-1,4′-isoquinolin]-2′(3′H)-yl)butanoic acid], for which the EC50 is greater than 1 µM in test [1], greater than 1 µM in test [2] (cells given as bound) and 1 to 10 µM in test [3]. In test [3] (setting [4]), the Emax was 50 to 100%.

For `O=C(O)CCCN1Cc2ccc(OCc3ccc(F)cc3)cc2C2(CC2)C1` [Compound 17, 4-(6′-((4-Fluorobenzyl)oxy)-1′H-spiro[cyclopropane-1,4′-isoquinolin]-2′(3′H)-yl)butanoic acid], the values for the 50% effective concentration (EC50) in test [1], in test [2] (cells given as bound) and in test [3] were greater than 1 µM, greater than 1 µM and 0.1 to 1 µM, respectively. Besides, in test [3] (setting [4]), the Emax was in the range of 50 to 100%.

Take `CC(C)c1ccc(C#Cc2ccc3c(c2)C2(CC2)CN(CC(=O)O)C3)cc1` [Compound 6, 2′-(carboxymethyl)-6′-((4-isopropylphenyl)ethynyl)-2′,3′-dihydro-1′H-spiro[cyclopropane-1,4′-isoquinolin]-2′-ium 2,2,2-trifluoroacetate]: the concentration giving a half-maximal response (EC50) was greater than 1 µM in test [1], greater than 1 µM in test [2] (cells given as bound) and 0.1 to 1 µM in test [3]. Besides, the Emax in test [3] (setting [4]) was greater than 100%.

In the case of `CC(CC(=O)O)CN1Cc2ccc(C#Cc3ccc(OC(F)(F)F)cc3)cc2C2(CC2)C1` (stereo not shown) [Compound 65, 3-methyl-4-(6′-((4-(trifluoromethoxy)phenyl)ethynyl)-1′H-spiro[cyclopropane-1,4′-isoquinolin]-2′(3′H)-yl)butanoic acid], the figures for the EC50 in test [1], in test [2] (cells given as bound) and in test [3] were greater than 1 µM, greater than 1 µM and 0.1 to 1 µM, respectively. Also, the Emax in test [3] (setting [4]) was greater than 100%.

For `O=C(O)C1CC(N2Cc3ccc(C#Cc4ccc(OC(F)(F)F)c(F)c4)cc3C3(CC3)C2)C1` (stereo not shown) [Compound 71, 3-(6′-((3-fluoro-4-(trifluoromethoxy)phenyl)ethynyl)-1′H-spiro[cyclopropane-1,4′-isoquinolin]-2′(3′H)-yl)cyclobutanecarboxylic acid], the results for the EC50 in test [1], in test [2] (cells given as bound) and in test [3] were greater than 1 µM, greater than 1 µM and 0.01 to 0.1 µM, respectively. Also, the Emax in test [3] (setting [4]) is 50 to 100%.

With `O=C(O)CN1Cc2ccc(OCc3c(Cl)cccc3Cl)cc2C2(CC2)C1` [Compound 12, 2-(6′-((2,6-Dichlorobenzyl)oxy)-1′H-spiro[cyclopropane-1,4′-isoquinolin]-2′(3′H)-yl)acetic acid], the results for the EC50 in test [1], in test [2] and in test [3] were greater than 1 µM, 0.1 to 1 µM and 0.1 to 1 µM, respectively. Besides, in test [3] (setting [4]), the Emax was 50 to 100%.

With `CCOc1ccc(C#Cc2ccc3c(c2)C2(CC2)CN(CC(C)CC(=O)O)C3)cc1` (stereo not shown) [Compound 63, 4-(6′-((4-ethoxyphenyl)ethynyl)-1′H-spiro[cyclopropane-1,4′-isoquinolin]-2′(3′H)-yl)-3-methylbutanoic acid], the EC50 in test [1] was greater than 1 µM; in test [2] (cells given as bound), greater than 1 µM; in test [3] it was 0.01 to 0.1 µM. Besides, the Emax in test [3] (setting [4]) lay in the range of 50 to 100%.

As for `CC(C)Oc1ccc(C#Cc2ccc3c(c2)C2(CC2)CN(CCCC(=O)O)C3)nc1` [Compound 52, 4-(6′-((5-isopropoxypyridin-2-yl)ethynyl)-1′H-spiro[cyclopropane-1,4′-isoquinolin]-2′(3′H)-yl)butanoic acid], the concentration for a half-maximal effect (EC50) is greater than 1 µM in test [1], greater than 1 µM in test [2] (cells given as bound) and 0.1 to 1 µM in test [3]. Moreover, the Emax in test [3] (setting [4]) was greater than 100%.

Take `CCOc1ccc(C#Cc2ccc3c(c2)C2(CC2)CN(CCCC(=O)O)C3)nc1` [Compound 54, 4-(6′-((5-ethoxypyridin-2-yl)ethynyl)-1′H-spiro[cyclopropane-1,4′-isoquinolin]-2′(3′H)-yl)butanoic acid]: the results for the half-maximal effective concentration (EC50) in test [1], in test [2] (cells given as bound) and in test [3] were greater than 1 µM, greater than 1 µM and 1 to 10 µM, respectively. For the same molecule, in test [3] (setting [4]), the Emax lay within 50 to 100%.

Regarding `CC(C)Oc1ccc(C#Cc2ccc3c(c2)C2(CC2)CN(C2CC(C(=O)O)C2)C3)nc1` (stereo not shown) [Compound 70, 3-(6′-((5-isopropoxypyridin-2-yl)ethynyl)-1′H-spiro[cyclopropane-1,4′-isoquinolin]-2′(3′H)-yl)cyclobutanecarboxylic acid], the EC50 was greater than 1 µM in test [1], greater than 1 µM in test [2] (cells given as bound) and 0.01 to 0.1 µM in test [3]. Further, in test [3] (setting [4]), the maximal effect (Emax) lay in the range of 50 to 100%.

In the case of `CCOc1ccc(C#Cc2ccc3c(c2)C2(CC2)CN(CC(C)CC(=O)O)C3)cc1F` (stereo not shown) [Compound 69, 4-(6′-((4-ethoxy-3-fluorophenyl)ethynyl)-1′H-spiro[cyclopropane-1,4′-isoquinolin]-2′(3′H)-yl)-3-methylbutanoic acid], the EC50 in test [1] is greater than 1 µM; in test [2] (cells given as bound), greater than 1 µM; in test [3] it was 0.01 to 0.1 µM. The Emax in test [3] (setting [4]) is greater than 100%.

In turn, `CC(=O)O.O=C(O)CCN1Cc2ccc(C#Cc3c(Cl)cccc3Cl)cc2C2(CC2)C1` [Compound 30, 3-(6′-((2,6-dichlorophenyl)ethynyl)-1′H-spiro[cyclopropane-1,4′-isoquinolin]-2′(3′H)-yl)propanoic acid acetic acid salt (1:1)] came in with an EC50 in test [2] of 0.1 to 1 µM. The “hS1P5 EMax” value in test [3] (setting [4]) was “++ (EMax = 50-100, determined with method 1)”.

`CC(CC(=O)O)CN1Cc2ccc(C#Cc3ccc(OC(F)(F)F)c(F)c3)cc2C2(CC2)C1` (stereo not shown) [Compound 61, 4-(6′-((3-fluoro-4-(trifluoromethoxy)phenyl)ethynyl)-1′H-spiro[cyclopropane-1,4′-isoquinolin]-2′(3′H)-yl)-3-methylbutanoic acid]: the figures for the EC50 in test [1], in test [2] (cells given as bound) and in test [3] were greater than 1 µM, greater than 1 µM and less than 0.01 µM, respectively. In addition, in test [3] (setting [4]), the maximal effect (Emax) lay in the range of 50 to 100%.

For the molecule `CCOc1ccc(C#Cc2ccc3c(c2)C2(CC2)CN(CCCC(=O)O)C3)cn1` [Compound 50, 4-(6′-((6-ethoxypyridin-3-yl)ethynyl)-1′H-spiro[cyclopropane-1,4′-isoquinolin]-2′(3′H)-yl)butanoic acid], the EC50 is greater than 1 µM in test [1], greater than 1 µM in test [2] (cells given as bound) and 0.1 to 1 µM in test [3]. Also, in test [3] (setting [4]), the Emax lay within 50 to 100%.

Regarding `CC(C)Oc1ccc(C#Cc2ccc3c(c2)C2(CC2)CN(CC2(C(=O)O)CC2)C3)cc1` [Compound 8, 1-((6′-((4-isopropoxyphenyl)ethynyl)-1′H-spiro[cyclopropane-1,4′-isoquinolin]-2′(3′H)-yl)methyl)cyclopropanecarboxylic acid], the EC50 in test [1] is greater than 1 µM; in test [2] (cells given as bound), greater than 1 µM; in test [3] it was 0.1 to 1 µM. Further, the maximal effect (Emax) in test [3] (setting [4]) was 50 to 100%.

Regarding `O=C(O)C1(CN2Cc3ccc(C#Cc4ccc(OC5CCCC5)nc4)cc3C3(CC3)C2)CC1` [Compound 9, 1-((6′-((6-(cyclopentyloxy)pyridin-3-yl)ethynyl)-1′H-spiro[cyclopropane-1,4′-isoquinolin]-2′(3′H)-yl)methyl)cyclopropanecarboxylic acid], the EC50 was greater than 1 µM in test [1], greater than 1 µM in test [2] (cells given as bound) and 0.1 to 1 µM in test [3]. In test [3] (setting [4]), the Emax is greater than 100%.
